# Data: publication doi:10.1101/2025.02.11.637513v1 (bioRxiv, 2025)
# Non-standard residues stand in square brackets, D forms with d. No end group written: not given here. *: point of attachment. Bip = N[C@@H](Cc1ccc(-c2ccccc2)cc1)C(=O)O; Phe(4-Cl) = N[C@@H](Cc1ccc(Cl)cc1)C(=O)O; Phe(2-Cl) = N[C@@H](Cc1ccccc1Cl)C(=O)O; Tle = CC(C)(C)[C@H](N)C(=O)O; Bn = c1ccc(C*)cc1
# How the values were obtained:
# Assay in all cases: tetrapeptide-ACC substrate cleavage kinetics
# Type in all cases: biochemical
# [1] = target: T1, human caspase-3 (Homo sapiens, UniProt P42574); conditions: Ac-P4-P3-P2-Asp-ACC substrate, 0.05-500 μM, 3-35 nM enzyme, 37°C, triplicate
# T1 sequence (P42574 29-175 limits assumed): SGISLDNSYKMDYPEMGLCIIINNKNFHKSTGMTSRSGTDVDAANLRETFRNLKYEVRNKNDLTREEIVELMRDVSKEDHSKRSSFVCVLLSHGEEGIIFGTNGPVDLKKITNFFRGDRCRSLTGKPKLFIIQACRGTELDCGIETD
# T1 sequence (P42574 176-277 limits assumed): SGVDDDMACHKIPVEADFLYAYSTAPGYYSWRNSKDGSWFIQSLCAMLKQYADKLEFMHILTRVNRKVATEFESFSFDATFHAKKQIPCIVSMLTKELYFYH
# [2] = target: T2, human caspase-5 (Homo sapiens, UniProt P51878); conditions: Ac-P4-P3-P2-Asp-ACC substrate, 0.05-500 μM, 20-250 nM enzyme, 37°C, triplicate
# T2 sequence (P51878 137-327 limits assumed): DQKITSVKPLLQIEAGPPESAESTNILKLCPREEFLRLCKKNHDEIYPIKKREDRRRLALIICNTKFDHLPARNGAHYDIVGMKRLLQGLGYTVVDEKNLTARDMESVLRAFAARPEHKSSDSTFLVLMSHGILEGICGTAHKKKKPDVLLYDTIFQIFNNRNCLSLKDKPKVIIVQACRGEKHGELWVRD
# T2 sequence (P51878 347-434 limits assumed): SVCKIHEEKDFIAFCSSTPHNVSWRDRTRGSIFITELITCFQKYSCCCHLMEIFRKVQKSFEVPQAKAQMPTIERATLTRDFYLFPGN
# [3] = target: T3, human caspase-1 (Homo sapiens, UniProt P29466); conditions: Ac-P4-P3-P2-Asp-ACC substrate, 0.05-500 μM, 2-15 nM enzyme, 37°C, triplicate
# T3 sequence (P29466 120-297 limits assumed): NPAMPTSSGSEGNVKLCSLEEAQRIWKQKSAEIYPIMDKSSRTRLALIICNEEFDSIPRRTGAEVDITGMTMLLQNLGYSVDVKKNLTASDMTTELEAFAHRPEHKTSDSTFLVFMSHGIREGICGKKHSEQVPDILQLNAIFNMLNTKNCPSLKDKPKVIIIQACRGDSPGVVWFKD
# T3 sequence (P29466 317-404 limits assumed): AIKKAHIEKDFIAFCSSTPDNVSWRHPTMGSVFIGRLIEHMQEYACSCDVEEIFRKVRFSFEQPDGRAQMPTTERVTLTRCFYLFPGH
# [4] = target: human caspase-8 (Homo sapiens, UniProt Q14790); conditions: Ac-P4-P3-P2-Asp-ACC substrate, 0.05-500 μM, 6-42 nM enzyme, 37°C, triplicate
# Sequence of human caspase-8 (Q14790 217-374 limits assumed): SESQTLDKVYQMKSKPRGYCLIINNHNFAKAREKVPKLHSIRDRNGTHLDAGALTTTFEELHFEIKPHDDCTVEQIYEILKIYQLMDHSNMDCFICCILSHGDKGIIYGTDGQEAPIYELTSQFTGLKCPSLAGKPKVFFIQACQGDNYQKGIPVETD
# Sequence of human caspase-8 (Q14790 385-479 limits assumed): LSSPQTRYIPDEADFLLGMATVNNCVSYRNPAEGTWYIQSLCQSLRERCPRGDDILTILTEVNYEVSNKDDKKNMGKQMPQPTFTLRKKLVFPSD
# [5] = target: T4, human caspase-7 (Homo sapiens, UniProt P55210); conditions: Ac-P4-P3-P2-Asp-ACC substrate, 0.05-500 μM, 40-400 nM enzyme, 37°C, triplicate
# T4 sequence (P55210 24-198 limits assumed): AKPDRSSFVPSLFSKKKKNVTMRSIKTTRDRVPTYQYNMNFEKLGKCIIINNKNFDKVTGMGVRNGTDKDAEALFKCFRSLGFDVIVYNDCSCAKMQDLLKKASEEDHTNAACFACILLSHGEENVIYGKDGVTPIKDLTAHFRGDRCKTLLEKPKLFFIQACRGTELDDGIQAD
# T4 sequence (P55210 207-303 limits assumed): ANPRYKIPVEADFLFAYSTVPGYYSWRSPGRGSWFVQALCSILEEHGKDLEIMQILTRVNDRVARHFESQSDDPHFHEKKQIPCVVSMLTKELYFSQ
# [6] = target: T5, human caspase-4 (Homo sapiens, UniProt P49662); conditions: Ac-P4-P3-P2-Asp-ACC substrate, 0.05-500 μM, 35-200 nM enzyme, 37°C, triplicate
# T5 sequence (P49662 81-270 limits assumed): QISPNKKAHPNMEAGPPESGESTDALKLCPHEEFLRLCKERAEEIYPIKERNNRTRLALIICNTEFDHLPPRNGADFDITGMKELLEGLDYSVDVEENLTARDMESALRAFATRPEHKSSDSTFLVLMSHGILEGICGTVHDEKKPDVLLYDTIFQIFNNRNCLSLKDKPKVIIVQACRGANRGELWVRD
# T5 sequence (P49662 290-377 limits assumed): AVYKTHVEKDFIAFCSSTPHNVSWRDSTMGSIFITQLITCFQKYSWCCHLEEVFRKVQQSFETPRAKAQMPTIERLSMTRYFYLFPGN
# [7] = target: T6, human caspase-9 (Homo sapiens, UniProt P55211); conditions: Ac-P4-P3-P2-Asp-ACC substrate, 0.05-500 μM, 20-150 nM enzyme, 37°C, triplicate
# T6 sequence (P55211 1-315 limits assumed): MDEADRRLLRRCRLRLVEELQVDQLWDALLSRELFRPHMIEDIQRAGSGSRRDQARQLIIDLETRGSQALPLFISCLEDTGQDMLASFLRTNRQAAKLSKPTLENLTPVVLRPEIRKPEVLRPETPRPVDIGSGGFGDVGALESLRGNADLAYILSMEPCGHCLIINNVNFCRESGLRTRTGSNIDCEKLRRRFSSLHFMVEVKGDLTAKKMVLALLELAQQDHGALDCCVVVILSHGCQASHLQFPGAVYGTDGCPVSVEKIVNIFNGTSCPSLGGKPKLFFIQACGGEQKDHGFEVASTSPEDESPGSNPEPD
# T6 sequence (P55211 331-416 limits assumed): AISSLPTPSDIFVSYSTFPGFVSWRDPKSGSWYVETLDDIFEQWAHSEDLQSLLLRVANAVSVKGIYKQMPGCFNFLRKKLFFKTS
Substance,kcat/KM caspase-3 [1],kcat/KM caspase-5 [2],kcat/KM caspase-1 [3],kcat/KM caspase-8 [4],kcat/KM caspase-7 [5],kcat/KM caspase-4 [6],kcat/KM caspase-9 [7]
Tyr-Thr-Ile-Asp,9 750 M^-1s^-1,810 M⁻¹ s⁻¹,48 100 M^-1s^-1,3 260 M^-1s^-1,1 440 M^-1s^-1,510 M⁻¹ s⁻¹,280 M⁻¹ s⁻¹
YT(Bn)HD,4 500 M^-1s^-1,6 920 M^-1s^-1,201 400 M^-1s^-1,4 760 M^-1s^-1,270 M⁻¹ s⁻¹,1 260 M^-1s^-1,7 970 M^-1s^-1
[Tle]MHD,20 740 M^-1s^-1,5 120 M^-1s^-1,23 100 M^-1s^-1,14 800 M^-1s^-1,280 M⁻¹ s⁻¹,2 020 M^-1s^-1,8 360 M^-1s^-1
V[Bip]HD,15 820 M^-1s^-1,380 M⁻¹ s⁻¹,9 100 M^-1s^-1,2 710 M^-1s^-1,190 M⁻¹ s⁻¹,1 640 M^-1s^-1,1 790 M^-1s^-1
Trp-Gln-Pro-Asp,1 410 M^-1s^-1,5 420 M^-1s^-1,124 300 M^-1s^-1,2 480 M^-1s^-1,70 M⁻¹ s⁻¹,3 470 M^-1s^-1,190 M⁻¹ s⁻¹
Val-hGlu-Thr(Bzl)-Asp,163 200 M^-1s^-1,5 430 M^-1s^-1,21 700 M^-1s^-1,85 540 M^-1s^-1,16 800 M^-1s^-1,1 840 M^-1s^-1,6 770 M^-1s^-1
[Tle][Phe(2-Cl)]HD,26 070 M^-1s^-1,6 990 M^-1s^-1,31 900 M^-1s^-1,6 220 M^-1s^-1,350 M⁻¹ s⁻¹,4 030 M^-1s^-1,8 070 M^-1s^-1
Tyr-Lys-Met-Asp,50 M⁻¹ s⁻¹,< 10 M⁻¹ s⁻¹,9 700 M^-1s^-1,210 M⁻¹ s⁻¹,10 M⁻¹ s⁻¹,180 M⁻¹ s⁻¹,50 M⁻¹ s⁻¹
Trp-Glu-His-Asp,8 970 M^-1s^-1,26 800 M^-1s^-1,552 400 M^-1s^-1,14 900 M^-1s^-1,410 M⁻¹ s⁻¹,18 000 M^-1s^-1,8 500 M^-1s^-1
Tyr-Gln-Pro-Asp,1 920 M^-1s^-1,1 590 M^-1s^-1,47 200 M^-1s^-1,2 170 M^-1s^-1,300 M⁻¹ s⁻¹,740 M⁻¹ s⁻¹,350 M⁻¹ s⁻¹
Trp(Me)-Dab-Pip-Asp,740 M⁻¹ s⁻¹,3 930 M^-1s^-1,176 200 M^-1s^-1,150 M⁻¹ s⁻¹,20 M⁻¹ s⁻¹,4 340 M^-1s^-1,120 M⁻¹ s⁻¹
Tyr-Val-Lys(tfa)-Asp,1 430 M^-1s^-1,1 360 M^-1s^-1,28 100 M^-1s^-1,1 260 M^-1s^-1,200 M⁻¹ s⁻¹,660 M⁻¹ s⁻¹,250 M⁻¹ s⁻¹
Leu-Glu-His-Asp,12 600 M^-1s^-1,21 500 M^-1s^-1,97 500 M^-1s^-1,186 000 M^-1s^-1,730 M⁻¹ s⁻¹,8 950 M^-1s^-1,12 700 M^-1s^-1
[Tle][Phe(4-Cl)]HD,21 330 M^-1s^-1,7 360 M^-1s^-1,13 300 M^-1s^-1,10 600 M^-1s^-1,160 M⁻¹ s⁻¹,2 500 M^-1s^-1,9 100 M^-1s^-1
